Consider 50 compounds from patent publication EP0440303A1 (PROBICOM RESEARCH B.V., priority 1990, dated 1991).

The target of assay [1] is T1, tripeptidase of L.lactis subsp. cremoris Wg2 (Lactococcus lactis subsp. cremoris, UniProt P0C2T7).
T1 sequence (P0C2T7 1-413): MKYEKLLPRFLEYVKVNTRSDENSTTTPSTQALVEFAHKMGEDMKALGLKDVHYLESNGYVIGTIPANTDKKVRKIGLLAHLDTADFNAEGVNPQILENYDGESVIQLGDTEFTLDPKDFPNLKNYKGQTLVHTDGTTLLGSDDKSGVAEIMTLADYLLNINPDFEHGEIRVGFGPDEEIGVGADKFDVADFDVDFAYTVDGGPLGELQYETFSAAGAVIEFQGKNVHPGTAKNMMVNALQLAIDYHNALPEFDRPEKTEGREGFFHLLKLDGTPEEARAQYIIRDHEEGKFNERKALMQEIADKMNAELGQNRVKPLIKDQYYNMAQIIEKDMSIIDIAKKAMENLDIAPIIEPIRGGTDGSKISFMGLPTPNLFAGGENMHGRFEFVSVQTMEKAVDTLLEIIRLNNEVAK
As to the kind of experiment: Substrate specificity: peptide hydrolysis analysed by TLC. It is filed as biochemical. The arrangement: key: + : hydrolysis; - : no hydrolysis. The conditions noted are these: peptide hydrolysis by the purified peptidase, 2 mM substrate in 20 mM HEPES (pH 7.0), 60 min at 30°C.

Assay [2] concerns the target T1, tripeptidase of L.lactis subsp. cremoris Wg2. As to the kind of experiment: Effects of chemical agents on the peptidase activity (leu3 hydrolysis). The assay is classed as biochemical.
Where [3] appears, read: NEM 0.5 mM, cystine 0.05 mM, phenylarsine oxide 0.1 mM, DTT 1 mM, β-mercaptoethanol 0.4 mM, ferricyanide 3 mM after the reducing agents.

Read-outs that look alike come from different tables or passages of the source. Where a SMILES comes first, the peptide text is derived from it.

Turning to `CC(C)C[C@H](N)C(=O)NCC(=O)NCC(=O)O` [Leu-Gly-Gly, leucyl-glycyl-glycine] (H-Leu-Gly-Gly-OH), the activity entry in assay [1] is “+”.
For the compound `C[C@H](N)C(=O)N[C@@H](C)C(=O)N[C@@H](C)C(=O)O` [Ala3], the activity result in assay [1] is listed as “+”.
For `CC(C)[C@H](N)C(=O)NCC(=O)NCC(=O)O` [Val-Gly-Gly] (H-Val-Gly-Gly-OH), the activity entry in assay [1] is on record as “+”.
In the case of “Bradykinin (RPPGFSPFR; Bradykinin; UniProt P01042 381-389, looked up)”, the activity entry in assay [1] was “-”.
For the compound `NCC(=O)NCC(=O)NCC(=O)O` [Gly-Gly-Gly] (H-Gly-Gly-Gly-OH), the activity entry in assay [1] is reported as “+”.
Same read-out and setting: to `NCCCC[C@H](NC(=O)[C@@H](N)CCC(=O)O)C(=O)O` [Glu-Lys] (H-Glu-Lys-OH) belongs “-”.
As to `N[C@@H](CSSC[C@H](N)C(=O)O)C(=O)O` [Cystine, cystine], the “effect on the enzyme activity (in words)” value in assay [2] (setting [3]) is on record as “had no effect on the enzyme activity”. Also, the activity at 50 µM in assay [2] (reagent 0.05 mM, 0.84 μg enzyme/ml, 10 min at pH 7 (20°C) before leu3 was added, none = 100, read-out: relative activity (%)) worked out at 118%.
For the compound `N[C@@H](Cc1c[nH]c2ccccc12)C(=O)NCC(=O)NCC(=O)O` [Trp-Gly-Gly] (H-Trp-Gly-Gly-OH), in assay [1], the activity entry is recorded as “+”.
The same measure, in the same setting: to `NCCC[C@H](NC(=O)[C@H](CCCN)NC(=O)[C@@H](N)CCCN)C(=O)O` [Orn-Orn-Orn] belongs “+”.
As to `O[C@H](CS)[C@H](O)CS` (racemic) [DTT, dithiothreitol], the “effect on the enzyme activity (in words)” value in assay [2] (setting [3]) was “strong inhibition”. The activity at 1000 µM in assay [2] (reagent 1 mM, 0.84 μg enzyme/ml, 10 min at pH 7 (20°C) before leu3 was added, none = 100, read-out: relative activity (%)) was 4%. Besides, the “effect on the enzyme (summary in words)” value in assay [2] (summary statement, concentration not given) is reported as “strong inhibition”.
As for `N=C(N)NCCCC(N)C(=O)NCC(=O)NCC(=O)O` (stereo not drawn) [Arg-Gly-Gly], in assay [1], the activity result is “+”.
`CCN1C(=O)C=CC1=O` [NEM, N-ethylmaleimide]: the “effect on the enzyme activity (in words)” value in assay [2] is given as “slightly inhibited the activity”. In assay [2] (pH 7, read-out: relative activity (%)), the activity at 500 µM amounted to 76%.
Turning to `N[C@@H](CCC(=O)O)C(=O)N[C@@H](CCC(=O)O)C(=O)O` [Glu-Glu] (H-Glu-Glu-OH), the activity result in assay [1] was “-”.
On the same count and under the same terms, to `CC(C)CC(NC(=O)CNC(=O)CN)C(=O)O` (stereo not drawn) belongs “+”; to `CC(C)[C@H](NC(=O)[C@@H](N)CCC(=O)O)C(=O)O` [Glu-Val] (H-Glu-Val-OH), “-”; to `NCC(=O)N1CCC[C@H]1C(=O)NCC(=O)NCC(=O)O` [Gly-Pro-Gly-Gly] (H-GPGG-OH), “-”.
On the same count and under the same terms, the result for `CSCC[C@H](NC(=O)[C@@H](N)CC(C)C)C(=O)O` [Leu-Met] (H-Leu-Met-OH) reads “-”.
On the same count and under the same terms, the result for Neurotensin reads “-”.
As for `CC(C)CC(NC(=O)C(Cc1ccccc1)NC(=O)CN)C(=O)O` (stereo not drawn) [Gly-Phe-Leu] (H-Gly-Phe-Leu-OH; configuration not given here), the activity result in assay [1] is given as “+”.
The same measure, in the same setting: the result for `CSCC[C@H](NC(=O)[C@H](CC(C)C)NC(=O)CNC(=O)[C@H](Cc1ccccc1)NC(=O)[C@H](Cc1ccccc1)NC(=O)[C@H](CCC(N)=O)NC(=O)[C@H](CCC(N)=O)NC(=O)[C@@H]1CCCN1C(=O)[C@H](CCCCN)NC(=O)[C@@H]1CCCN1C(=O)[C@@H](N)CCCNC(=N)N)C(N)=O` [Substance P] reads “-”.
On the same count and under the same terms, to `CC(NC(=O)C1CCCN1C(=O)CN)C(=O)O` (stereo not drawn) [Gly-Pro-Ala] belongs “-”; to `NCC(=O)NCC(=O)O` [Gly-Gly] (H-Gly-Gly-OH), “-”.
The same measure, in the same setting: the result for `CC(C)CC(NC(=O)CN)C(=O)NC(Cc1ccc(O)cc1)C(=O)O` (stereo not drawn) [Gly-Leu-Tyr] (H-Gly-Leu-Tyr-OH; configuration not given here) reads “+”.
Turning to `N[C@@H](Cc1ccc(O)cc1)C(=O)NCC(=O)NCC(=O)O` [Tyr-Gly-Gly] (H-Tyr-Gly-Gly-OH), the activity result in assay [1] is listed as “+”.
On the same count and under the same terms, the result for `CC(C)[C@H](NC(=O)[C@@H](N)CCC(=O)O)C(=O)N[C@@H](Cc1ccccc1)C(=O)O` [Glu-Val-Phe] (H-Glu-Val-Phe-OH) reads “+”; that for `C[C@H](NC(=O)[C@@H](N)CCC(=O)O)C(=O)O` [Glu-Ala] (H-Glu-Ala-OH), “-”.
In the case of `CC(NC(=O)C(CO)NC(=O)CN)C(=O)O` (stereo not drawn) [Gly-Ser-Ala], the activity entry in assay [1] was “+”.
The same measure, in the same setting: the result for `C[C@H](N)C(=O)N1CCC[C@H]1C(=O)N[C@@H](C)C(=O)O` [Ala-Pro-Ala] (H-Ala-Pro-Ala-OH) reads “-”.
Same read-out and setting: the result for `C[C@H](N)C(=O)N[C@@H](C)C(=O)O` [Ala2] (H-Ala-Ala-OH) reads “-”.
Same read-out and setting: to `NC(CO)C(=O)NCC(=O)NCC(=O)O` (stereo not drawn) [Ser-Gly-Gly] belongs “+”; to `CSCCC(N)C(=O)NCC(=O)NCC(=O)O` (stereo not drawn) [Met-Gly-Gly], “+”.
Take `CC(C)C[C@H](NC(=O)[C@@H](N)Cc1ccccc1)C(=O)O` [Phe-Leu] (H-Phe-Leu-OH): in assay [1], the activity result is on record as “-”.
As for `O=C(O)CNC(=O)CNC(=O)C1CCCN1` (stereo not drawn) [Pro-Gly-Gly], the activity entry in assay [1] is given as “+”.
On the same count and under the same terms, the result for `CC(C)CC(NC(=O)C(NC(=O)C(C)N)C(C)C)C(=O)O` (stereo not drawn) [Ala-Val-Leu] reads “+”; that for `CC(C)C[C@H](NC(=O)[C@@H](N)CC(C)C)C(=O)O` [Leu-Leu], “-”; that for `C[C@H](N)C(=O)N1CCC[C@H]1C(=O)N[C@@H](Cc1ccccc1)C(=O)O` [Ala-Pro-Phe] (H-Ala-Pro-Phe-OH), “-”.
Same read-out and setting: the result for `C[C@H](N)C(=O)N[C@@H](CC(=O)O)C(=O)O` [Ala-Asp] (H-Ala-Asp-OH) reads “-”; that for `CC(NC(=O)C(Cc1ccc(O)cc1)NC(=O)CN)C(=O)O` (stereo not drawn) [Gly-Tyr-Ala], “+”.
The same measure, in the same setting: to `CC(C)C[C@H](NC(=O)[C@H](CC(C)C)NC(=O)[C@@H](N)CC(C)C)C(=O)O` [Leu-Leu-Leu, leucyl-leucyl-leucine] (H-Leu-Leu-Leu-OH) belongs “+”; to `CC(C)C[C@H](N)C(=O)NCC(=O)O` [Leu-Gly] (H-Leu-Gly-OH), “-”.
Consider `C[C@H](N)C(=O)N[C@@H](C)C(=O)N[C@@H](C)C(=O)N[C@@H](C)C(=O)N[C@@H](C)C(=O)O` [Ala5], for which the activity entry in assay [1] was “-”.
Still for that read-out and setting: the result for `CSCC[C@H](NC(=O)[C@H](Cc1ccccc1)NC(=O)CNC(=O)CNC(=O)[C@@H](N)Cc1ccc(O)cc1)C(=O)O` [Met-enkephalin] reads “-”; that for `NCC(=O)NC(Cc1cnc[nH]1)C(=O)NCC(=O)O` (stereo not drawn) [Gly-His-Gly], “+”; that for `C[C@H](N)C(=O)N[C@@H](Cc1cnc[nH]1)C(=O)N[C@@H](C)C(=O)O` [Ala-His-Ala] (H-Ala-His-Ala-OH), “+”.
Take `NC(Cc1ccccc1)C(=O)NCC(=O)NCC(=O)O` (stereo not drawn) [Phe-Gly-Gly]: the activity entry in assay [1] is recorded as “+”.
On the same count and under the same terms, the result for `C[C@H](N)C(=O)N[C@@H](C)C(=O)N[C@@H](C)C(=O)N[C@@H](C)C(=O)N[C@@H](C)C(=O)N[C@@H](C)C(=O)O` [Ala6] reads “-”.
The same measure, in the same setting: to `NCC(=O)NCC(=O)NC(Cc1ccccc1)C(=O)O` (stereo not drawn) [Gly-Gly-Phe] belongs “+”.
Same read-out and setting: the result for `C[C@H](N)C(=O)N[C@@H](C)C(=O)N[C@@H](C)C(=O)N[C@@H](C)C(=O)O` [Ala4] (H-AAAA-OH) reads “-”.
Turning to oxidized β-chain insulin, the activity entry in assay [1] is on record as “-”.
Same read-out and setting: the result for `NC(Cc1cnc[nH]1)C(=O)NCC(=O)NCC(=O)O` (stereo not drawn) [His-Gly-Gly] reads “+”.
